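Values below derive from 48-hour exposures of cells grown in 96-well plates, with endpoints linearly interpolated between the two concentrations bracketing the appropriate inhibition level. TGI: total growth inhibition.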
How the values were obtained:
Experiment in all cases: NCI-60 cell line screen, 48 h
T-47D breast = system: T-47D breast
NCI/ADR-RES ovarian = system: NCI/ADR-RES ovarian
HCT-15 colon = system: HCT-15 colon
HL-60(TB) leukemia = system: HL-60(TB) leukemia
SW-620 colon = system: SW-620 colon
M14 melanoma = system: M14 melanoma
NCI-H522 lung = system: NCI-H522 lung
RXF 393 renal = system: RXF 393 renal
OVCAR-4 ovarian = system: OVCAR-4 ovarian
KM12 colon = system: KM12 colon
SK-OV-3 ovarian = system: SK-OV-3 ovarian
SF-539 CNS = system: SF-539 CNS
NCI-H226 lung = system: NCI-H226 lung
UACC-257 melanoma = system: UACC-257 melanoma
ACHN renal = system: ACHN renal
SK-MEL-5 melanoma = system: SK-MEL-5 melanoma
HCC-2998 colon = system: HCC-2998 colon

CC1CN(c2cc3c(cc2F)c(=O)c(C(=O)O)cn3-c2ccc(F)cn2)CC(C)N1 (configuration not stated)
TGI (T-47D breast): > 100 µM
TGI (NCI/ADR-RES ovarian): > 100 µM
TGI (HCT-15 colon): > 100 µM
TGI (HL-60(TB) leukemia): > 100 µM
TGI (SW-620 colon): > 100 µM
TGI (M14 melanoma): > 100 µM
TGI (NCI-H522 lung): > 100 µM
TGI (RXF 393 renal): > 100 µM
TGI (OVCAR-4 ovarian): > 100 µM
TGI (KM12 colon): > 100 µM
TGI (SK-OV-3 ovarian): > 100 µM
TGI (SF-539 CNS): > 100 µM
TGI (NCI-H226 lung): > 100 µM
TGI (UACC-257 melanoma): > 100 µM

CN(C)CCNC(=O)Cn1cnc2cccc([N+](=O)[O-])c2c1=O
TGI (T-47D breast): > 100 µM
TGI (NCI/ADR-RES ovarian): > 100 µM
TGI (HCT-15 colon): > 100 µM
TGI (ACHN renal): > 100 µM
TGI (HL-60(TB) leukemia): > 100 µM
TGI (SW-620 colon): > 100 µM
TGI (M14 melanoma): > 100 µM
TGI (NCI-H522 lung): > 100 µM
TGI (RXF 393 renal): > 100 µM
TGI (SK-MEL-5 melanoma): > 100 µM
TGI (OVCAR-4 ovarian): > 100 µM
TGI (KM12 colon): > 100 µM
TGI (SK-OV-3 ovarian): > 100 µM
TGI (SF-539 CNS): > 100 µM
TGI (NCI-H226 lung): > 100 µM
TGI (UACC-257 melanoma): > 100 µM
TGI (HCC-2998 colon): > 100 µM

COc1ccc(NC(C)=O)c(C(O)CCNC(C)=O)c1 (configuration not stated)
TGI (T-47D breast): > 100 µM
TGI (NCI/ADR-RES ovarian): > 100 µM
TGI (HCT-15 colon): > 100 µM
TGI (ACHN renal): > 100 µM
TGI (HL-60(TB) leukemia): > 100 µM
TGI (SW-620 colon): > 100 µM
TGI (M14 melanoma): > 100 µM
TGI (NCI-H522 lung): > 100 µM
TGI (RXF 393 renal): > 100 µM
TGI (SK-MEL-5 melanoma): > 100 µM
TGI (OVCAR-4 ovarian): > 100 µM
TGI (KM12 colon): > 100 µM
TGI (SK-OV-3 ovarian): > 100 µM
TGI (SF-539 CNS): > 100 µM
TGI (NCI-H226 lung): > 100 µM
TGI (UACC-257 melanoma): > 100 µM

CC(C)Oc1cccc(N2C(=NCCc3c[nH]c4ccccc34)Nc3ccncc3S2(=O)=O)c1
TGI (T-47D breast): > 100 µM
TGI (NCI/ADR-RES ovarian): > 100 µM
TGI (HCT-15 colon): > 100 µM
TGI (ACHN renal): > 100 µM
TGI (HL-60(TB) leukemia): 65.4 µM
TGI (SW-620 colon): > 100 µM
TGI (M14 melanoma): > 100 µM
TGI (NCI-H522 lung): > 100 µM
TGI (RXF 393 renal): 44.9 µM
TGI (SK-MEL-5 melanoma): > 100 µM
TGI (OVCAR-4 ovarian): > 100 µM
TGI (KM12 colon): > 100 µM
TGI (SK-OV-3 ovarian): > 100 µM
TGI (SF-539 CNS): > 100 µM
TGI (NCI-H226 lung): > 100 µM
TGI (UACC-257 melanoma): > 100 µM
TGI (HCC-2998 colon): > 100 µM

O/N=C1/CC2(N3CCOCC3)C3CC/C(=N\O)C2CC1(Cc1ccccc1)C3 (configuration not stated)
TGI (T-47D breast): > 100 µM
TGI (NCI/ADR-RES ovarian): > 100 µM
TGI (HCT-15 colon): > 100 µM
TGI (ACHN renal): > 100 µM
TGI (HL-60(TB) leukemia): > 100 µM
TGI (SW-620 colon): > 100 µM
TGI (M14 melanoma): > 100 µM
TGI (NCI-H522 lung): > 100 µM
TGI (RXF 393 renal): > 100 µM
TGI (SK-MEL-5 melanoma): > 100 µM
TGI (OVCAR-4 ovarian): > 100 µM
TGI (KM12 colon): > 100 µM
TGI (SK-OV-3 ovarian): > 100 µM
TGI (SF-539 CNS): > 100 µM
TGI (NCI-H226 lung): > 100 µM
TGI (UACC-257 melanoma): > 100 µM
TGI (HCC-2998 colon): > 100 µM

CCCCCCCCCCCCCCCCOP(=O)(O)OCC(NC(C)=O)C(=O)O (configuration not stated)
TGI (T-47D breast): > 100 µM
TGI (NCI/ADR-RES ovarian): > 100 µM
TGI (HCT-15 colon): 34.3 µM
TGI (ACHN renal): > 100 µM
TGI (HL-60(TB) leukemia): > 100 µM
TGI (SW-620 colon): > 100 µM
TGI (M14 melanoma): > 100 µM
TGI (NCI-H522 lung): > 100 µM
TGI (RXF 393 renal): 48.3 µM
TGI (SK-MEL-5 melanoma): > 100 µM
TGI (OVCAR-4 ovarian): 60.7 µM
TGI (SK-OV-3 ovarian): > 100 µM
TGI (SF-539 CNS): > 100 µM
TGI (NCI-H226 lung): > 100 µM
TGI (UACC-257 melanoma): > 100 µM
TGI (HCC-2998 colon): > 100 µM

N=CN=CC(=S)O[C@@H]1C(=O)N2CCC[C@@]23CCCC[C@@H]13
TGI (T-47D breast): > 12.5 µM
TGI (NCI/ADR-RES ovarian): > 12.5 µM
TGI (HCT-15 colon): > 12.5 µM
TGI (ACHN renal): > 12.5 µM
TGI (HL-60(TB) leukemia): > 12.5 µM
TGI (M14 melanoma): > 12.5 µM
TGI (NCI-H522 lung): > 12.5 µM
TGI (RXF 393 renal): > 12.5 µM
TGI (SK-MEL-5 melanoma): > 12.5 µM
TGI (OVCAR-4 ovarian): > 12.5 µM
TGI (KM12 colon): > 12.5 µM
TGI (SK-OV-3 ovarian): > 12.5 µM
TGI (NCI-H226 lung): > 12.5 µM
TGI (UACC-257 melanoma): > 12.5 µM
TGI (HCC-2998 colon): > 12.5 µM

CSC1=NNC(SC)=NN1
TGI (T-47D breast): 0.33 µM
TGI (NCI/ADR-RES ovarian): > 1 µM
TGI (HCT-15 colon): 0.307 µM
TGI (ACHN renal): 0.304 µM
TGI (HL-60(TB) leukemia): 0.407 µM
TGI (SW-620 colon): 0.307 µM
TGI (M14 melanoma): 0.335 µM
TGI (NCI-H522 lung): 0.555 µM
TGI (SK-MEL-5 melanoma): 0.354 µM
TGI (OVCAR-4 ovarian): 0.309 µM
TGI (KM12 colon): 0.376 µM
TGI (SK-OV-3 ovarian): 0.382 µM
TGI (SF-539 CNS): 0.413 µM
TGI (NCI-H226 lung): 0.389 µM
TGI (UACC-257 melanoma): 0.258 µM
TGI (HCC-2998 colon): > 1 µM

CC(C)(C)OC(=O)NCCCC(=O)NC1(c2cc3ccccc3s2)CCCCC1
TGI (T-47D breast): > 100 µM
TGI (NCI/ADR-RES ovarian): 70 µM
TGI (HCT-15 colon): 45.5 µM
TGI (ACHN renal): 41 µM
TGI (HL-60(TB) leukemia): 24.8 µM
TGI (SW-620 colon): 52.8 µM
TGI (M14 melanoma): 40.1 µM
TGI (NCI-H522 lung): 34.1 µM
TGI (RXF 393 renal): 44.1 µM
TGI (SK-MEL-5 melanoma): 19.9 µM
TGI (OVCAR-4 ovarian): > 100 µM
TGI (KM12 colon): 38.9 µM
TGI (SK-OV-3 ovarian): 99.5 µM
TGI (SF-539 CNS): 30.7 µM
TGI (UACC-257 melanoma): 31.9 µM
TGI (HCC-2998 colon): 48.5 µM

CSc1nc2c(c(N3CCOCC3)n1)C(O)n1c(nc3ccccc31)S2 (configuration not stated)
TGI (T-47D breast): > 100 µM
TGI (NCI/ADR-RES ovarian): > 100 µM
TGI (HCT-15 colon): > 100 µM
TGI (ACHN renal): > 100 µM
TGI (HL-60(TB) leukemia): > 100 µM
TGI (SW-620 colon): > 100 µM
TGI (M14 melanoma): > 100 µM
TGI (NCI-H522 lung): > 100 µM
TGI (RXF 393 renal): > 100 µM
TGI (SK-MEL-5 melanoma): 8.41 µM
TGI (OVCAR-4 ovarian): > 100 µM
TGI (KM12 colon): > 100 µM
TGI (SK-OV-3 ovarian): > 100 µM
TGI (SF-539 CNS): 8.77 µM
TGI (UACC-257 melanoma): > 100 µM
TGI (HCC-2998 colon): > 100 µM

COc1ccc(C2=C(N)c3ncccc3C2=O)cc1
TGI (T-47D breast): > 100 µM
TGI (NCI/ADR-RES ovarian): > 100 µM
TGI (HCT-15 colon): > 100 µM
TGI (ACHN renal): > 10 µM
TGI (HL-60(TB) leukemia): > 100 µM
TGI (SW-620 colon): > 100 µM
TGI (M14 melanoma): > 100 µM
TGI (RXF 393 renal): > 100 µM
TGI (OVCAR-4 ovarian): > 100 µM
TGI (KM12 colon): > 100 µM
TGI (SK-OV-3 ovarian): > 100 µM
TGI (SF-539 CNS): > 100 µM
TGI (NCI-H226 lung): > 100 µM
TGI (UACC-257 melanoma): > 10 µM
TGI (HCC-2998 colon): > 100 µM

CC(=O)OCC1OC(O[C@@H]2C[C@H]3C(C)(C)[C@@H](OC(C)=O)CC[C@]3(C)[C@H]3CC[C@]45C[C@]4(CC[C@H]5[C@@H](C)C[C@@H](O)[C@H](O)C(C)(C)F)[C@@]32C)C(O)C(O)C1O (some centres not stated)
TGI (T-47D breast): > 100 µM
TGI (NCI/ADR-RES ovarian): 29.6 µM
TGI (HCT-15 colon): 5.94 µM
TGI (ACHN renal): > 100 µM
TGI (HL-60(TB) leukemia): 2.75 µM
TGI (SW-620 colon): 4.85 µM
TGI (M14 melanoma): 3.28 µM
TGI (NCI-H522 lung): 4.82 µM
TGI (RXF 393 renal): > 100 µM
TGI (SK-MEL-5 melanoma): 3.2 µM
TGI (OVCAR-4 ovarian): > 100 µM
TGI (KM12 colon): > 100 µM
TGI (SK-OV-3 ovarian): > 100 µM
TGI (SF-539 CNS): 3.51 µM
TGI (UACC-257 melanoma): > 100 µM
TGI (HCC-2998 colon): > 100 µM

Cc1ccc(OCC2OC(n3cnc4c(Cl)nc(Cl)nc43)CC2Oc2ccc(C)cc2)cc1 (configuration not stated)
TGI (T-47D breast): 4.53 µM
TGI (NCI/ADR-RES ovarian): 4.37 µM
TGI (HCT-15 colon): 3.27 µM
TGI (ACHN renal): 2.66 µM
TGI (HL-60(TB) leukemia): 6.53 µM
TGI (SW-620 colon): > 100 µM
TGI (M14 melanoma): 3.99 µM
TGI (NCI-H522 lung): 3.82 µM
TGI (SK-MEL-5 melanoma): 19.2 µM
TGI (OVCAR-4 ovarian): 4.45 µM
TGI (KM12 colon): 3.09 µM
TGI (SK-OV-3 ovarian): 35.9 µM
TGI (SF-539 CNS): 4.04 µM
TGI (NCI-H226 lung): 14.3 µM
TGI (UACC-257 melanoma): 6.59 µM
TGI (HCC-2998 colon): 30.8 µM

CCOC(OCC)N1C(=O)C2(C(OCC)OCC)CC3C(OC(=O)N3N)c3cccc1c32 (configuration not stated)
TGI (T-47D breast): > 100 µM
TGI (NCI/ADR-RES ovarian): > 100 µM
TGI (HCT-15 colon): > 100 µM
TGI (ACHN renal): > 100 µM
TGI (HL-60(TB) leukemia): > 100 µM
TGI (SW-620 colon): > 100 µM
TGI (RXF 393 renal): > 100 µM
TGI (SK-MEL-5 melanoma): > 100 µM
TGI (OVCAR-4 ovarian): > 100 µM
TGI (KM12 colon): > 100 µM
TGI (SK-OV-3 ovarian): > 100 µM
TGI (SF-539 CNS): > 100 µM
TGI (NCI-H226 lung): > 100 µM
TGI (UACC-257 melanoma): > 100 µM
TGI (HCC-2998 colon): > 100 µM

Reference: PubChem BioAssay (NCI)
